# According to patent US11464773B2, “Nutlin-3a for treatment of proliferative vitreoretinopathy” (The Schepens Eye Research Institute, Inc., priority 2012, dated 2022):
# “Also recorded” adds a separate entry of the source.
# Legend:
# p53 [1] = assay: Western blot: RV-mediated decline in the level of p53 in RCFs; assay type: cell-based, rabbit
# Experimental: (§1) FIG. 1A is a photograph of a western blot showing the impact of Nutlin-3a on RV-mediated signaling events. Primary rabbit conjunctival fibroblasts (RCFs) were pre-treated with either Nutlin-3a (10 μM), or vehicle for 30 min and then exposed to either RV (diluted 1:3 in Dulbecco's Modified Eagle Medium (DMEM)), or DMEM for 2 hr. The resulting cell lysates were subjected to western blot analysis using the indicated antibodies. The numbers are a ratio of p-PDGFRα/PDGFRα, p-Akt/Akt or p53/RasGAP (Ras GTPase) activating protein. […] FIG. 1B is a bar chart showing the impact of Nutlin-3a on RV-mediated contraction. RCFs were subjected to the collagen contraction assay as described above. Nutlin-3a (10 μM) or vehicle was included as indicated. The data were subjected to a paired t test; “*” denoted a statistically significant difference.
# FIGS. 8A-8B include a series of photographs showing the minimum effective dose and maximum tolerated dose of Nutlin-3a. FIG. 8A is a series of photomicrographs of western blots showing RCFs pretreated with the indicated concentrations of Nutlin-3a for 30 min, and then exposed to RV (diluted 1:3 in DMEM) for 2 hours. […]
# (§2) Cells were grown to 90% confluence in serum-containing medium, and then incubated for 24 hr in medium without serum. […] Signal intensity was determined by densitometry and analyzed with the Quantity One (Bio-Rad) software.
# PDGFRα = assay: Western blot: RV-induced phosphorylation of PDGFRα in RCFs; assay type: cell-based, rabbit; conditions: Nutlin-3a 10 μM, RV 2 hr
# Experimental: as §1
# (§3) Cells were grown to 90% confluence in serum-containing medium, and then incubated for 24 hr in medium without serum. Cells were stimulated (as detailed for each experiment), washed twice with ice-cold phosphate buffered saline (PBS), and lysed in extraction buffer (10 mM Tris-HCl, pH 7.4, 5 mM EDTA, 50 mM NaCl, 50 mM NaF, 1% Triton X-100, 20 μg/ml aprotinin, 2 mM Na3VO4, 1 mM phenylmethylsulfonyl fluoride). […] Signal intensity was determined by densitometry and analyzed with the Quantity One (Bio-Rad) software.
# Akt = assay: Western blot: RV-induced activation of Akt in RCFs; assay type: cell-based, rabbit; conditions: Nutlin-3a 10 μM, RV 2 hr
# Experimental: as §1, §3
# [2] = system: primary rabbit conjunctival fibroblasts (RCFs); assay: Collagen I contraction assay, RV-induced, RCFs; assay type: cell-based; conditions: Nutlin-3a 10 μM, gel measured on day 3
# Experimental: as §1
# Cells were trypsinized, washed and resuspended in 1.5 mg/ml of neutralized collagen I (INAMED, Fremont, Calif.) (pH 7.2) at a density of 1×10^6 cells/ml for RPEM or 5×10^4 cells/ml for RCFs. The mixture was aliquoted into wells of a 24-well plate that had been preincubated overnight with 5 mg/ml bovine serum albumin in PBS. […] The media were replaced every day, and the gel diameter was measured on day 3. The gel area was calculated using the formula πr2, where r is the radius of the gel.
# [3] = system: primary rabbit conjunctival fibroblasts (RCFs); assay: Maximum tolerated dose in cultured RCFs; assay type: cell-based; conditions: RCFs in DMEM+5% FBS, medium replaced every 24 hours, day 3
# Experimental: FIGS. 8A-8B include a series of photographs showing the minimum effective dose and maximum tolerated dose of Nutlin-3a. FIG. 8A is a series of photomicrographs of western blots showing RCFs pretreated with the indicated concentrations of Nutlin-3a for 30 min, and then exposed to RV (diluted 1:3 in DMEM) for 2 hours. Cells were lysed and resulting lysates were subjected to western blot analysis using the indicated antibodies. The data shown are representative of three independent experiments. FIG. 8B is a series of photographs showing RCFs grown to near confluence in DMEM+10% FBS, the medium was replaced with DMEM+5% FBS+the indicated concentration of Nutlin-3a. The medium was replaced every 24 hours, and the photographs were taken on day 3. The data shown are representative of two independent experiments. The scale bar is 50 μm.
# retina = assay: Retinal toxicity after intravitreal injections in rabbits; assay type: in vivo; conditions: multiple intravitreal injection of up to 20 micromolar, day 0, 2 and 4; fundus exams to day 14, histology
# Experimental: FIGS. 9A-9B include a series of photographs showing epiretinal membranes from rabbits subjected to the PVR protocol. Rabbits that underwent a gas vitrectomy were intravitreally injected with the indicated concentration of Nutlin-3a on day 0, 2 and 4. The rabbits underwent a fundus examination on day 1, 3, 5, 7 and 14. Following the last fundus exam rabbits were euthanized, eyes were enucleated and fixed in 10% formalin. Sections were prepared, stained with hematoxylin and eosin, and then photographed. Representative photos of a Nutlin-3a (FIG. 9A) and vehicle (FIG. 9B) injected eye are presented. Arrowheads and arrows point to the retina and epiretinal membrane, respectively; scale bar: 50 μm. The lack of the retinal pigment epithelial cell layer is an artifact related to processing of the tissue.
# [4] = system: proliferative vitreoretinopathy (PVR); assay: Rabbit model for PVR (Fastenberg scale); assay type: in vivo, Dutch Belted rabbits
# Experimental: (§4) FIGS. 2A-2B include a dot plot and a series of photomicrographs showing that Nutlin -3a prevented retinal detachment and elevated p53 in epiretinal membranes. FIG. 2A is a dot plot illustrating the impact of Nutlin-3a on experimental PVR. RCFs were used to induce PVR as described below. The indicated rabbits received no additional injections (none) or 0.1 cc injections of either vehicle, or Nutlin-3a (20 μM) on day 0, 2 and 4. The data were subjected to an unpaired t test or one way Analysis of Variance (ANOVA) test; “*” denoted a statistically significant difference. FIG. 2B is a series of photographs showing that Nutlin-3a enhanced expression of p53 in epiretinal membranes. At the end of the experiment (day 28), the eyes were enucleated, and paraffin sections of whole eyes were subjected to p53 immunohistochemistry. The arrows point to the epiretinal membrane (the arrowheads denote the retina and the brown color indicates p53). The left and right panels are from a Nutlin-3a injected animal, whereas the middle panel is from a rabbit treated with vehicle. The left and middle panels were stained with the p53 antibody, whereas the right panel was stained with non-immune IgG. The scale bar is 50 μm.
# PVR was induced in Dutch Belted rabbits, purchased from Covance (Denver, Pa.), as previously described (Lei H et al., 2009 Invest Ophthalmol Vis Sci, 50:3394-3403). Briefly, a gas vitrectomy was performed by injecting 0.1 ml of perfluoropropane (C3F8) (Alcon, Fort Worth, Tex.) into vitreous. One week later, the right eye of rabbits was injected in one of two ways. For the experiment injecting RCFs expressing shRNAs, 0.1 ml of DMEM containing 1×10^5 RCFs that were modified as outlined in the legend were injected along with 0.1 ml rabbit platelet-rich plasma. For the Nutlin-3a experiment, all rabbits were injected with 0.1 ml of DMEM containing 1×10^5 unmodified RCFs, 0.1 ml rabbit platelet rich plasma and either not injected a third time, or injected with vehicle, or 0.1 ml of 200 μM Nutlin-3a. The vehicle or Nutlin-3a injection was repeated on day 3 and 5. The retinal status was evaluated with an indirect ophthalmoscope fitted with a +30 D fundus lens on day 1, 3, 5, 7, 14, 21 and 28. PVR was graded according to the Fastenberg scale of classification 41: stage 0, no disease; stage 1, epiretinal membrane; stage 2, vitreoretinal traction without retinal detachment; stage 3, localized retinal detachment (1-2 quadrants); stage 4, extensive retinal detachment (2-4 quadrants without complete detachment); stage 5, complete retinal detachment. On day 28, animals were sacrificed, and eyes were enucleated and frozen at −80° C.
# p53 [5] = assay: p53 immunohistochemistry of epiretinal membranes from PVR rabbits; assay type: in vivo, rabbit; conditions: day 28, immunohistochemistry
# Experimental: as §4
# Rabbit eyeballs were fixed in 10% formalin for 48 hr and embedded in paraffin after dehydration. […]
# p53 [6] = assay: Western blot: HV-mediated fall in the level of p53 in RPE cells from a human PVR membrane; assay type: cell-based; conditions: RPE cells from human epiretinal membrane, HV pool of 5 PVR patients diluted 1:3
# Excerpt: (§5) FIGS. 7A-7B include a photograph of a western blot and a bar chart showing p53 attenuated human vitreous humor (HV)-driven collagen gel contraction. FIG. 7A is a photograph of a western blot showing the impact of Nutlin-3a on HV-mediated signaling events. Methods were the same as FIG. 3A, but the RPE cells from a human patient epiretinal membrane were used in place of RCF, and HV (a pool of vitreous from 5 PVR patients diluted 1:3 in DMEM) was used in place of RV. The data presented are representative of three independent experiments. FIG. 7B is a bar chart showing the impact of Nutlin-3a on HV-mediated contraction. This experiments were the same as FIG. 3B with the modification noted in FIG. 7A. The data were subjected to a paired t test. “*” denoted a statistically significant difference. The data shown are representative of three independent experiments.
# (§6) RPEM cells are RPE cells derived from a human epiretinal membrane, as previously described (Wong C A et al., 2002 Can J Ophthalmol, 37:211-220). Primary rabbit conjunctival fibroblasts (RCFs) were obtained and cultured as described previously (Ikuno Y et al., 2002 Invest Ophthalmol Vis Sci, 43:2406-2411). […]
# as §2
# [7] = system: upstream signaling events; assay: Western blot: HV-mediated upstream signaling events in RPE cells from a human PVR membrane; assay type: cell-based; conditions: RPE cells from human epiretinal membrane, HV diluted 1:3
# Excerpt: as §5, §6, §2
# [8] = system: RPE cells isolated from a human PVR membrane; assay: Collagen contraction assay, HV-stimulated, RPE cells from a human PVR membrane; assay type: cell-based; conditions: RPE cells from human epiretinal membrane, HV diluted 1:3
# Excerpt: as §5
# RPEM cells are RPE cells derived from a human epiretinal membrane, as previously described (Wong C A et al., 2002 Can J Ophthalmol, 37:211-220). […]
# (§7) Cells were trypsinized, washed and resuspended in 1.5 mg/ml of neutralized collagen I (INAMED, Fremont, Calif.) (pH 7.2) at a density of 1×10^6 cells/ml for RPEM or 5×10^4 cells/ml for RCFs. […] The media were replaced every day, and the gel diameter was measured on day 3. The gel area was calculated using the formula πr2, where r is the radius of the gel.
# sh GFP cells = assay: Collagen contraction assay, RV-induced, sh GFP RCFs; assay type: cell-based, rabbit; conditions: Imatinib 10 μM, day 3
# Excerpt: (§8) FIGS. 10A-10B include a series of bar graphs showing that inhibiting PDGFRα kinase activity blocked RV-induced collagen contraction. The indicated RCFs (50,000 cells/ml) (FIG. 10A) or F cells (1 million cells/ml) (FIG. 10B) were subjected to a collagen contraction assays as described below. […] The panels below the bar graphs show photographs of representative gels; the data presented are representative of 3 independent experiments. The data were subjected to a paired t test; “*” denoted a statistically significant difference.
# Cells were trypsinized, washed and resuspended in 1.5 mg/ml of neutralized collagen I (INAMED, Fremont, Calif.) (pH 7.2) at a density of 1×10^6 cells/ml for RPEM or 5×10^4 cells/ml for RCFs. The mixture was aliquoted into wells of a 24-well plate that had been preincubated overnight with 5 mg/ml bovine serum albumin in PBS. The collagen solution was solidified by incubating at 37° C. for 90 min, and overlaid with medium containing the desired agents. The media were replaced every day, and the gel diameter was measured on day 3. The gel area was calculated using the formula πr2, where r is the radius of the gel.
# Fβ cells = assay: Collagen contraction assay, RV-induced, Fβ cells; assay type: cell-based, mouse; conditions: Imatinib 10 μM, day 3
# Excerpt: as §8
# (§9) RPEM cells are RPE cells derived from a human epiretinal membrane, as previously described (Wong C A et al., 2002 Can J Ophthalmol, 37:211-220). Primary rabbit conjunctival fibroblasts (RCFs) were obtained and cultured as described previously (Ikuno Y et al., 2002 Invest Ophthalmol Vis Sci, 43:2406-2411). RCFs that stably expressed the shRNA targeting vector specific for GFP, PDGFRα, p53 or PDGFRα and p53 were designated sh GFP, sh PDGFRα sh p53 and sh PDGFRα/p53, respectively.
# as §7
# Fα cells = assay: Collagen contraction assay, RV-induced, Fα cells; assay type: cell-based, mouse; conditions: Imatinib 10 μM, day 3
# Excerpt: as §8, §9, §7
Structure (SMILES),"RV-mediated decline in the level of p53 (p53 [1]; RCFs pre-treated with Nutlin-3a 10 μM 30 min, then RV (1:3 in DMEM) 2 hr)","minimum dose to prevent the RV-induced reduction of p53 (p53 [1]; RCFs pretreated 30 min, RV (1:3) 2 hours) [µM]",RV-induced phosphorylation of PDGFRα (PDGFRα),RV-induced activation of Akt (Akt),RV-mediated contraction of collagen gels [2],maximum tolerated dose [3] [µM],overt signs of retinal toxicity (retina),"animals that succumbed to even partial retinal detachment (stage 3 or 4) ([4]; by day 28, intravitreal Nutlin-3a injections) [%]","formation of epiretinal membranes (stage 1 and 2) ([4]; intravitreal Nutlin-3a injections, to day 28)",retinal detachment ([4]; series of intravitreal injections),"rabbits that developed vitreal traction (stage 2) ([4]; series of intravitreal injections, end of experiment (day 28)) [%]",p53 level in epiretinal membranes versus vehicle-injected controls (p53 [5]),HV-induced fall in the level of p53 (p53 [6]),upstream signaling events in HV-treated cells [7],HV-stimulated contraction of RPE-containing collagen gels [8],RV-induced contraction in sh GFP cells (sh GFP cells),RV-induced contraction in cells expressing PDGFRβ (Fβ) (Fβ cells),RV-stimulated contraction in cells expressing PDGFRα (Fα) (Fα cells)
"COc1ccc(C2=N[C@@H](c3ccc(Cl)cc3)[C@@H](c3ccc(Cl)cc3)N2C(=O)N2CCNC(=O)C2)c(OC(C)C)c1 (single isomer, unassigned) [Nutlin-3a]",effectively blocked,2,no effect,no effect,effectively blocked,30,did not produce overt signs of retinal toxicity,0,slowed formation of membranes; also recorded: did form membranes,completely prevented,50,higher,prevented the precipitous fall,without impacting upstream signaling events,inhibited,,,
Cc1ccc(NC(=O)c2ccc(CN3CCN(C)CC3)cc2)cc1Nc1nccc(-c2cccnc2)n1 [Imatinib],,,,,,,,,,,,,,,,completely blocked,did not improve RV-induced contraction or generate sensitivity to Imatinib,erased
